Source: patent publication US6936585B2, “Corticotropin releasing factor 2 receptor agonists” (priority 2002, dated 2005)
Ends that are not written are not given here. Peptide text beside a SMILES is read from it.

How the values were obtained:
CRF2R = biological target: T1, CRF2R (Homo sapiens, UniProt Q13324); assay: CRF2R agonist activation (EC50 / Emax), called comparative CRF binding; assay type: cell-based; details: for Emax: read-out: CRF2R Emax; for EC50: read-out: CRF2R EC50
T1 sequence (Q13324 1-411): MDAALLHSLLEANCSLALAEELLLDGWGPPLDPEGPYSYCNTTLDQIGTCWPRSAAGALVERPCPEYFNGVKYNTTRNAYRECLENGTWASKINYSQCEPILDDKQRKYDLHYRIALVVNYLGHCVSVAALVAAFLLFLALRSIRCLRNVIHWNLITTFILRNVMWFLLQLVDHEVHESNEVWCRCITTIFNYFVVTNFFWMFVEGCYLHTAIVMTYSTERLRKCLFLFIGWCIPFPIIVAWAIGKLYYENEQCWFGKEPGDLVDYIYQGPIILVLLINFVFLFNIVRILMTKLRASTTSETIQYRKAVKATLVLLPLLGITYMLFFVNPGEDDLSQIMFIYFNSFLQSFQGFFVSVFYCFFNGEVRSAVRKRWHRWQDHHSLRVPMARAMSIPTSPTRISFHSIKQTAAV
Outline: (§1)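 Cells expressing human CRF1R or CRF2R are exposed to peptide or vehicle control, and receptor activation is read as cAMP induction, measured in cell lysates or via a CRE-linked reporter gene.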

CRF1R = biological target: T2, CRF1R (Homo sapiens, UniProt P34998); assay: CRF1R agonist activation (EC50 / Emax), called comparative CRF binding; assay type: cell-based; details: for Emax: read-out: CRF1R Emax; for EC50: read-out: CRF1R EC50
T2 sequence (P34998 24-415): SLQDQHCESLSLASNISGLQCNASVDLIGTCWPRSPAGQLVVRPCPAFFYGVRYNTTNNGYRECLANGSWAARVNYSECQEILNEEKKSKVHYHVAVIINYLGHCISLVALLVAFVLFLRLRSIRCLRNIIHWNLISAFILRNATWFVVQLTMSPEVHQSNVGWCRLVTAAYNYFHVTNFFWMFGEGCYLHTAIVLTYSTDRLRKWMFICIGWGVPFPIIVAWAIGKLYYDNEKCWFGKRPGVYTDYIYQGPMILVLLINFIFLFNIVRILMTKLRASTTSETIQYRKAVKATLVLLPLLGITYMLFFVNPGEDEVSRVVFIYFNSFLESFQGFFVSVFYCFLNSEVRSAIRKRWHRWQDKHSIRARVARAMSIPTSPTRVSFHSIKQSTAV
Outline: as §1

Row | Compound | Emax (CRF2R) [%] | Emax (CRF1R) [%] | EC50 (CRF2R) [nM] | EC50 (CRF1R) [nM]
1 | CC[C@H](C)[C@H](N)C(=O)N[C@H](C(=O)N[C@@H](CC(C)C)C(=O)N[C@@H](CO)C(=O)N[C@@H](CC(C)C)C(=O)N[C@@H](CC(=O)O)C(=O)N[C@H](C(=O)N1CCC[C@H]1C(=O)N[C@H](C(=O)NCC(=O)N[C@@H](CC(C)C)C(=O)N[C@@H](CC(C)C)C(=O)N[C@@H](CCC(N)=O)C(=O)N[C@@H](CCC(=O)O)C(=O)N[C@H](C(=O)N[C@@H](CC(C)C)C(=O)N[C@@H](CCC(=O)O)C(=O)N[C@@H](CCSC)C(=O)N[C@@H](C)C(=O)N[C@@H](CCCNC(=N)N)C(=O)N[C@@H](C)C(=O)N[C@@H](CCC(=O)O)C(=O)N[C@@H](CCC(N)=O)C(=O)N[C@@H](CC(C)C)C(=O)N[C@@H](C)C(=O)N[C@@H](CCC(N)=O)C(=O)N[C@@H](CCC(N)=O)C(=O)N[C@@H](C)C(=O)N[C@@H](Cc1c[nH]cn1)C(=O)N[C@@H](CO)C(=O)N[C@@H](CC(N)=O)C(=O)N[C@@H](CCCNC(=N)N)C(=O)N[C@@H](CCCCN)C(=O)N[C@@H](CC(C)C)C(=O)N[C@@H](CCSC)C(=O)N[C@@H](CCC(=O)O)C(=O)N[C@H](C(=O)N[C@H](C(N)=O)[C@@H](C)CC)[C@@H](C)CC)C(C)C)[C@@H](C)CC)C(C)C)C(C)C [compound 165] (H-IVLSLDVPIGLLQEVLEMARAEQLAQQAHSNRKLMEII-NH2) | 75 | 19 |  | 
2 | CC[C@H](C)[C@H](N)C(=O)N[C@H](C(=O)N[C@@H](CC(C)C)C(=O)N[C@@H](CO)C(=O)N[C@@H](CC(C)C)C(=O)N[C@@H](CC(=O)O)C(=O)N[C@H](C(=O)N1CCC[C@H]1C(=O)N[C@H](C(=O)NCC(=O)N[C@@H](CC(C)C)C(=O)N[C@@H](CC(C)C)C(=O)N[C@@H](CCC(N)=O)C(=O)N[C@H](C(=O)N[C@@H](CC(C)C)C(=O)N[C@@H](CC(C)C)C(=O)N[C@@H](CCC(=O)O)C(=O)N[C@@H](CCC(N)=O)C(=O)N[C@H](C(=O)N[C@@H](CCCCN)C(=O)N[C@@H](C)C(=O)N[C@@H](CCCNC(=N)N)C(=O)N[C@@H](C)C(=O)N[C@@H](C)C(=O)N[C@@H](CCCNC(=N)N)C(=O)N[C@@H](CCC(=O)O)C(=O)N[C@@H](CCC(N)=O)C(=O)N[C@@H](C)C(=O)N[C@H](C(=O)N[C@H](C(=O)N[C@@H](CC(N)=O)C(=O)N[C@@H](C)C(=O)N[C@@H](CCCNC(=N)N)C(=O)N[C@H](C(=O)N[C@@H](CC(C)C)C(=O)N[C@@H](C)C(=O)N[C@@H](CCCNC(=N)N)C(=O)N[C@H](C(N)=O)C(C)C)[C@@H](C)CC)[C@@H](C)O)[C@@H](C)O)[C@@H](C)O)[C@@H](C)CC)[C@@H](C)CC)C(C)C)C(C)C [compound 117] (H-IVLSLDVPIGLLQILLEQTKARAAREQATTNARILARV-NH2) | 98.8 | 7.8 |  | 
3 | CC[C@H](C)[C@H](NC(=O)[C@H](C)NC(=O)[C@H](CC(N)=O)NC(=O)[C@H](CCC(N)=O)NC(=O)[C@H](CCC(=O)O)NC(=O)[C@H](C)NC(=O)[C@H](CCCNC(=N)N)NC(=O)[C@H](CCC(=O)O)NC(=O)[C@H](CCCNC(=N)N)NC(=O)[C@H](CCC(N)=O)NC(=O)[C@H](CO)NC(=O)[C@H](CCC(N)=O)NC(=O)[C@@H](NC(=O)[C@H](CCCNC(=N)N)NC(=O)[C@H](C)NC(=O)[C@H](CC(C)C)NC(=O)[C@H](CCC(=O)O)NC(=O)[C@H](CC(C)C)NC(=O)[C@H](CC(C)C)NC(=O)[C@@H](NC(=O)[C@H](CCCNC(=N)N)NC(=O)[C@H](CC(C)C)NC(=O)[C@H](CC(C)C)NC(=O)[C@H](CCC(N)=O)NC(=O)[C@H](CC(C)C)NC(=O)[C@@H]1CCCN1C(=O)[C@H](CC(C)C)NC(=O)[C@H](CC(=O)O)NC(=O)[C@@H](NC(=O)[C@H](CO)NC(=O)[C@H](CC(C)C)NC(=O)[C@H](CO)NC(=O)[C@@H]1CCCN1C(=O)[C@H](CC(N)=O)NC(=O)[C@@H](N)CC(=O)O)[C@@H](C)CC)[C@@H](C)O)[C@@H](C)O)C(=O)N[C@H](C(=O)N[C@@H](Cc1ccccc1)C(=O)N[C@@H](C)C(=O)N[C@@H](CO)C(=O)N[C@H](C(N)=O)C(C)C)[C@@H](C)CC [compound 176] (H-DNPSLSIDLPLQLLRTLLELARTQSQRERAEQNAIIFASV-NH2; N-terminus assumed) | 90.2 | 26.9 |  | 
4 | CC[C@H](C)[C@H](N)C(=O)N[C@H](C(=O)N[C@@H](CC(C)C)C(=O)N[C@@H](CO)C(=O)N[C@@H](CC(C)C)C(=O)N[C@@H](CC(=O)O)C(=O)N[C@H](C(=O)N1CCC[C@H]1C(=O)N[C@H](C(=O)NCC(=O)N[C@@H](CC(C)C)C(=O)N[C@@H](CC(C)C)C(=O)N[C@@H](CCC(N)=O)C(=O)N[C@H](C(=O)N[C@@H](CC(C)C)C(=O)N[C@@H](CC(C)C)C(=O)N[C@@H](CCC(=O)O)C(=O)N[C@@H](CCC(N)=O)C(=O)N[C@@H](C)C(=O)N[C@@H](CCCCN)C(=O)N[C@@H](C)C(=O)N[C@@H](CCC(=O)O)C(=O)N[C@@H](C)C(=O)N[C@@H](C)C(=O)N[C@@H](CCCNC(=N)N)C(=O)N[C@@H](CCC(=O)O)C(=O)N[C@@H](CCC(N)=O)C(=O)N[C@@H](C)C(=O)N[C@H](C(=O)N[C@H](C(=O)N[C@@H](CC(N)=O)C(=O)N[C@@H](C)C(=O)N[C@@H](CCCNC(=N)N)C(=O)N[C@H](C(=O)N[C@@H](CC(C)C)C(=O)N[C@@H](C)C(=O)N[C@@H](CCCNC(=N)N)C(=O)N[C@H](C(N)=O)C(C)C)[C@@H](C)CC)[C@@H](C)O)[C@@H](C)O)[C@@H](C)CC)[C@@H](C)CC)C(C)C)C(C)C [compound 112] (H-IVLSLDVPIGLLQILLEQAKAEAAREQATTNARILARV-NH2; N-terminus assumed) | 100 | 10 | 12.3 | > 100
5 | CC[C@H](C)[C@H](NC(=O)[C@H](C)NC(=O)[C@H](CC(N)=O)NC(=O)[C@H](CCC(N)=O)NC(=O)[C@H](CCC(=O)O)NC(=O)[C@H](C)NC(=O)[C@H](CCCNC(=N)N)NC(=O)[C@H](CCC(=O)O)NC(=O)[C@H](CCCNC(=N)N)NC(=O)[C@H](CCC(N)=O)NC(=O)[C@H](CO)NC(=O)[C@H](CCC(N)=O)NC(=O)[C@@H](NC(=O)[C@H](CCCNC(=N)N)NC(=O)[C@H](C)NC(=O)[C@H](CC(C)C)NC(=O)[C@H](CCC(=O)O)NC(=O)[C@H](CC(C)C)NC(=O)[C@H](CC(C)C)NC(=O)[C@@H](NC(=O)[C@H](CCCNC(=N)N)NC(=O)[C@H](CC(C)C)NC(=O)[C@H](CC(C)C)NC(=O)[C@H](Cc1c[nH]cn1)NC(=O)[C@H](Cc1ccccc1)NC(=O)[C@@H]1CCCN1C(=O)[C@H](CC(C)C)NC(=O)[C@H](CC(=O)O)NC(=O)[C@@H](NC(=O)[C@H](CO)NC(=O)[C@H](CC(C)C)NC(=O)[C@H](CO)NC(=O)[C@@H]1CCCN1C(=O)[C@H](CC(N)=O)NC(=O)[C@@H](N)CC(=O)O)[C@@H](C)CC)[C@@H](C)O)[C@@H](C)O)C(=O)N[C@H](C(=O)N[C@@H](Cc1ccccc1)C(=O)N[C@@H](C)C(=O)N[C@@H](CO)C(=O)N[C@H](C(N)=O)C(C)C)[C@@H](C)CC [compound 185] (H-DNPSLSIDLPFHLLRTLLELARTQSQRERAEQNAIIFASV-NH2; N-terminus assumed) | 100 | 95.8 | 8.98 | 358
6 | CC[C@H](C)[C@H](N)C(=O)N[C@H](C(=O)N[C@@H](CC(C)C)C(=O)N[C@@H](CO)C(=O)N[C@@H](CC(C)C)C(=O)N[C@@H](CC(=O)O)C(=O)N[C@H](C(=O)N1CCC[C@H]1C(=O)N[C@H](C(=O)NCC(=O)N[C@@H](CC(C)C)C(=O)N[C@@H](CC(C)C)C(=O)N[C@@H](CCC(N)=O)C(=O)N[C@H](C(=O)N[C@@H](CC(C)C)C(=O)N[C@@H](CC(C)C)C(=O)N[C@@H](CCC(=O)O)C(=O)N[C@@H](CCC(N)=O)C(=O)N[C@H](C(=O)N[C@@H](CCCNC(=N)N)C(=O)N[C@@H](C)C(=O)N[C@@H](CCCNC(=N)N)C(=O)N[C@@H](C)C(=O)N[C@@H](C)C(=O)N[C@@H](CCCNC(=N)N)C(=O)N[C@@H](CCC(=O)O)C(=O)N[C@@H](CCC(N)=O)C(=O)N[C@@H](C)C(=O)N[C@H](C(=O)N[C@H](C(=O)N[C@@H](CC(N)=O)C(=O)N[C@@H](C)C(=O)N[C@@H](CCCNC(=N)N)C(=O)N[C@H](C(=O)N[C@@H](CC(C)C)C(=O)N[C@@H](C)C(=O)N[C@@H](CCCNC(=N)N)C(=O)N[C@H](C(N)=O)C(C)C)[C@@H](C)CC)[C@@H](C)O)[C@@H](C)O)[C@@H](C)O)[C@@H](C)CC)[C@@H](C)CC)C(C)C)C(C)C [compound 128] (H-IVLSLDVPIGLLQILLEQTRARAAREQATTNARILARV-NH2; N-terminus assumed) | 98 | 8 | 2.85 | > 100
7 | SQEPPISLDLTIHLLREVLEMTKADQLAQQAHSNRKLLDIA-NH2 [compound 87] | 14.7 | 5.3 |  | 
